Reference: patent US12649750B2, “Macrocyclic compounds, compositions, and methods of using thereof” (Sionna Therapeutics Inc., priority 2022, dated 2026)

What was measured:
CFTR = molecular target: T1, CFTR (Homo sapiens, UniProt P13569, DEL508-508); assay: TECC24 AUC fold over DMSO @10 μM, CFTR-mediated transepithelial chloride transport in CF-HBE cells; type: cell-based; settings: test agent AUC divided by DMSO vehicle AUC, primary CF-HBE cells, ΔF508 homozygous donor, 48 hours incubation
T1 construct: Primary human bronchial epithelial cells from a ΔF508 homozygous CF donor; host or cells: primary human bronchial epithelial cells (CF-HBE), ΔF508 homozygous donor
Method in brief: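 Value is ratio of test-agent to DMSO AUC of equivalent transepithelial Cl− current, integrated from forskolin (10 μM) stimulation to CFTR inhibitor-172 (20 μM) block, with benzamil 10 μM present. CF-HBE (ΔF508/ΔF508) cultures had 48 h compound exposure at 10 μM, 36.5° C before recording.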

NBD1 = molecular target: T2, NBD1 (Homo sapiens, UniProt P13569); assay: Aggregation analysis using differential static light scattering (DSLS), thermal stability of NBD1 (ΔTagg); type: binding; settings: ΔTagg versus DMSO control, NBD1 0.2 mg/ml
T2 construct: Purified recombinant NBD1 was produced using previously described methods; made in house
Method in brief: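 Stabilisation is measured as the shift in aggregation onset of recombinant NBD1 (0.2 mg/ml, 2 mM ATP, 5 mM MgCl2, pH7.6) exposed to compound. Images are taken every 0.5° C. while heating at 1° C. per minute, and the inflection-point Tagg is corrected by the DMSO mean.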

T1 sequence (P13569 with tags, fused parts or gaps DEL508-508): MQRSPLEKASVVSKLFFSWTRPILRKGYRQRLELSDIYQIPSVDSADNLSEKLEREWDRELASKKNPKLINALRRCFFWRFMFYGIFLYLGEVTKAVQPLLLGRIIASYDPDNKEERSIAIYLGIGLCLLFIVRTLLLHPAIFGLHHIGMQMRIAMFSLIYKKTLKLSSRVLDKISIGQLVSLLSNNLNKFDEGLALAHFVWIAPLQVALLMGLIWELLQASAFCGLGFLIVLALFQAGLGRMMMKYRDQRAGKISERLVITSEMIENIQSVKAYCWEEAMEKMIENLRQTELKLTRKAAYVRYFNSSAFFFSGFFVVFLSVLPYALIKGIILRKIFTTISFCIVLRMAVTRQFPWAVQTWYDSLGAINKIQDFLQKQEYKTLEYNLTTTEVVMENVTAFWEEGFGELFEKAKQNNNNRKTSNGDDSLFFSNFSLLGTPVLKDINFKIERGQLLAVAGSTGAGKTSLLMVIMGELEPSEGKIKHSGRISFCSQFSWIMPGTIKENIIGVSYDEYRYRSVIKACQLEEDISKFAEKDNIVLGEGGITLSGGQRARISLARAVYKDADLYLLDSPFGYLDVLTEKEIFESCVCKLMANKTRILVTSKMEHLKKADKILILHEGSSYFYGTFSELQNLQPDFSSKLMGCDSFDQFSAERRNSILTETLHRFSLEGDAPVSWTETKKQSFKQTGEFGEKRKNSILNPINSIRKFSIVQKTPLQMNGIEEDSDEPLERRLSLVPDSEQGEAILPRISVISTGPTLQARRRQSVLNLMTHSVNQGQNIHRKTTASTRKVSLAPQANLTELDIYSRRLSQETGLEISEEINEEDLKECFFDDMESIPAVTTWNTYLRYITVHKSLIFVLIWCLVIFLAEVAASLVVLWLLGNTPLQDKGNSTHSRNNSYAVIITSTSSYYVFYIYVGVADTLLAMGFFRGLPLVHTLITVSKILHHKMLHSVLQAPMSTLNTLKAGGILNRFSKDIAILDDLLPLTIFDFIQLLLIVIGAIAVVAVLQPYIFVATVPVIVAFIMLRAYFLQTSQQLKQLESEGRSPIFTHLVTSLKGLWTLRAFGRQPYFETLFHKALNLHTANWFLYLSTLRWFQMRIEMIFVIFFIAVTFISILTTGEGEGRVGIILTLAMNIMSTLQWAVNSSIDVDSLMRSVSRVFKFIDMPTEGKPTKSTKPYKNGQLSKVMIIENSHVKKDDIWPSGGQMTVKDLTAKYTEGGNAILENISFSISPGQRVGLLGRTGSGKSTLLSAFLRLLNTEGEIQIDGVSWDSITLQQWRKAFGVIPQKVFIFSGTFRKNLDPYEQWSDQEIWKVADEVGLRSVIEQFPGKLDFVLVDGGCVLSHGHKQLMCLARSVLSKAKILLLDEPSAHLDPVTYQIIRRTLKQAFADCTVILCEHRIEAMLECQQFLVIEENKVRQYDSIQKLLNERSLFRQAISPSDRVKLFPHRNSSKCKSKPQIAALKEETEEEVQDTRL
T2 sequence (P13569 423-646 limits assumed): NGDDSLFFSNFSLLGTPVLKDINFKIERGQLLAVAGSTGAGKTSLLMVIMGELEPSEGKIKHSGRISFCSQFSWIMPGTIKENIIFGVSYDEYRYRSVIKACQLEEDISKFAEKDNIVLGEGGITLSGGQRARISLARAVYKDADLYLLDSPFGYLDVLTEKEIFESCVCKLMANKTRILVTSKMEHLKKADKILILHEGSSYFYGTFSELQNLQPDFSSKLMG

Compound	TECC (AUC, 10 μM) (CFTR)	DSLS 3D (100 μM ΔT) (NBD1)
C[C@H](Cc1cccc([C@@]2(C)CCCC(C)(C)CS(=O)(=O)CCc3c(c(F)c(F)c4[nH]ccc34)Sc3ccnc(c3)-c3nc2nn3C)c1)C(=O)O [Compound 270, (2R)-3-[3-[(6R)-21,22-difluoro-3,6,10,10-tetramethyl-12,12-dioxo-12λ6,24-dithia-3,4,19,28,30-pentazapentacyclo[23.3.1.12,5.015,23.016,20]triaconta-1(29),2(30),4,15,17,20,22,25,27-nonaen-6-yl]phenyl]-2-methyl-propanoic Acid]	B (a value between 12-20 is marked “B”)	C (a value greater than 10 °C and less than or equal to 25 °C is marked “C”)
C[C@@H](Cc1cccc(C2(C)CCCC(C)(C)CS(=O)(=O)CCc3c(c(F)cc4[nH]ccc34)Oc3ccc(F)c(c3)-c3nc2nn3C)c1)C(=O)OCCN1CCOCC1 (single isomer, unassigned) [Compound 142]	B (a value between 12-20 is marked “B”)	B (a value above 5 °C and less than or equal to 10 °C is marked “B”)
Cn1nc2nc1-c1cc(ccc1F)Oc1c(F)cc3[nH]ccc3c1CCS(=O)(=O)CC(F)(F)C(C)(C)CCC2(C)c1cccc(CCC(=O)O)c1 (single isomer, unassigned) [Compound 102B, 3-[3-[10,10,22,28-tetrafluoro-3,6,9,9-tetramethyl-12,12-dioxo-24-oxa-12lambda6-thia-3,4,19,30-tetrazapentacyclo[23.3.1.12,5.015,23.016,20]triaconta-1(29),2(30),4,15,17,20,22,25,27-nonaen-6-yl]phenyl]propanoic acid]	B (a value between 12-20 is marked “B”)	B (a value above 5 °C and less than or equal to 10 °C is marked “B”)
Cn1nc2nc1-c1cc(ccc1F)[S+]([O-])c1c(F)cc3[nH]ccc3c1CCS(=O)(=O)CC(C)(C)CCC[C@]2(C)c1cccc([C@@H](O)CO)c1 (single isomer, unassigned) [Compound 236A]	A (a TECC value less than 12 is marked “A”)	B (a value above 5 °C and less than or equal to 10 °C is marked “B”)
Cn1nc2nc1-c1cc(ccc1F)Sc1c(F)cc3[nH]ccc3c1CCS(=O)(=O)CC(C)(C)CCC[C@]2(C)c1cccc(C[C@H](O)CO)c1 [Compound 287, (2S)-3-[3-[(6R)-22,28-difluoro-3,6,10,10-tetramethyl-12,12-dioxo-12λ6,24-dithia-3,4,19,30-tetrazapentacyclo[23.3.1.12,5.015,23.016,20]triaconta-1(29),2(30),4,15,17,20,22,25,27-nonaen-6-yl]phenyl]propane-1,2-diol]	C (a value between 20 and 80 is marked “C”)	C (a value greater than 10 °C and less than or equal to 25 °C is marked “C”)
Cn1nc2nc1-c1cc(ccc1F)Oc1c(F)cc3[nH]ccc3c1Cc1ccn(n1)CCS(=O)(=O)CCC2(C)c1cccc(CCC(=O)O)c1 (single isomer, unassigned) [Compound 100B, 3-[3-(24,30-difluoro-3,6-dimethyl-9,9-dioxo-26-oxa-9λ6-thia-3,4,12,21,32,33-hexazahexacyclo[25.3.1.12,5.112,15.017,25.018,22]tritriaconta-1(31),2(33),4,13,15(32),17,19,22,24,27,29-undecaen-6-yl)phenyl]propanoic Acid]	A (a TECC value less than 12 is marked “A”)	A (an ΔTagg value less than or equal to 5 °C is marked “A”)
COc1ccc2cc1-c1nc(nn1C)C(C)(c1cccc(C[C@@H](C)C(=O)O)c1)CCCC(C)(C)CS(=O)(=O)CCc1c(c(F)cc3[nH]ccc13)C2=O (single isomer, unassigned) [Compound 127A]	A (a TECC value less than 12 is marked “A”)	B (a value above 5 °C and less than or equal to 10 °C is marked “B”)
CC1(C)CCCC(c2cccc(CCC(=O)O)c2)n2ncc(C#N)c2-c2cc(ccc2F)Oc2c(F)cc3[nH]ccc3c2CCS(=O)(=O)C1 (racemic) [Compound 22A, 3-[3-(3-cyano-23,29-difluoro-11,11-dimethyl-13,13-dioxo-25-oxa-13lambda6-thia-5,6,20-triazapentacyclo[24.3.1.02,6.016,24.017,21]triaconta-1(30),2,4,16,18,21,23,26,28-nonaen-7-yl)phenyl]propanoic acid]	A (a TECC value less than 12 is marked “A”)	A (an ΔTagg value less than or equal to 5 °C is marked “A”)
COCC(Cc1cccc([C@@]2(C)CCCC(C)(C)CS(=O)(=O)CCc3c(c(F)cc4[nH]ccc34)[S+]([O-])c3ccc(F)c(c3)-c3nc2nn3C)c1)C(=O)O (single isomer, unassigned) [Compound 218B]	C (a value between 20 and 80 is marked “C”)	C (a value greater than 10 °C and less than or equal to 25 °C is marked “C”)
C[C@@H](Cc1cccc([C@@]2(C)CCCC(C)(C)CS(=O)(=O)CCc3c(c(F)cc4[nH]ccc34)[S+]([O-])c3ccnc(c3)-c3nc2nn3C)c1)C(=O)O (single isomer, unassigned) [Compound 222A]	C (a value between 20 and 80 is marked “C”)	B (a value above 5 °C and less than or equal to 10 °C is marked “B”)
Cc1cn2nc1-c1cc(ccc1F)Oc1c(F)cc3[nH]ccc3c1CCS(=O)(=O)CC(C)(C)COCCC2c1cccc(CCC(=O)O)c1 (centres unmarked) [Compound 76, 3-[3-(23,29-Difluoro-3,11,11-trimethyl-13,13-dioxo-9,25-dioxa-13λ6-thia-5,20,31-triazapentacyclo[24.3.1.12,5.016,24.017,21]hentriaconta-1(30),2(31),3,16,18,21,23,26,28-nonaen-6-yl)phenyl]propanoic Acid]	A (a TECC value less than 12 is marked “A”)	C (a value greater than 10 °C and less than or equal to 25 °C is marked “C”)
CC1(C)CCCC(c2cccc(CCC(=O)O)c2)n2cc(C#N)c(n2)-c2cc(ccc2F)Oc2c(F)cc3[nH]ccc3c2CCS(=O)(=O)C1 (single isomer, unassigned) [Compound 22C, 3-[3-[3-cyano-22,28-difluoro-10,10-dimethyl-12,12-dioxo-24-oxa-12lambda6-thia-5,19,30-triazapentacyclo[23.3.1.12,5.015,23.016,20]triaconta-1(29),2(30),3,15,17,20,22,25,27-nonaen-6-yl]phenyl]propanoic acid]	C (a value between 20 and 80 is marked “C”)	C (a value greater than 10 °C and less than or equal to 25 °C is marked “C”)
C[C@@H](Cc1cccc([C@@]2(C)CCCC(C)(C)CS(=O)(=O)CCc3c(c(F)cc4[nH]ccc34)Oc3ccnc(c3)-c3nc2nn3C)c1)C(=O)O (mixture of isomers) [Compound 201, (2S)-3-[3-[(6R)-22-Fluoro-3,6,10,10-tetramethyl-12,12-dioxo-24-oxa-12λ6-thia-3,4,19,28,30-pentazapentacyclo[23.3.1.12,5.015,23.016,20]triaconta-1(29),2(30),4,15,17,20,22,25,27-nonaen-6-yl]phenyl]-2-methyl-propanoic Acid]	B (a value between 12-20 is marked “B”)	C (a value greater than 10 °C and less than or equal to 25 °C is marked “C”)
Cn1nc2nc1-c1cc(ccc1F)Oc1c(F)cc3[nH]ccc3c1CCS(=O)(=O)CC(F)(F)C(C)(C)CCC2(C)c1cccc(CCC(=O)O)c1 (single isomer, unassigned) [Compound 102A, 3-[3-[10,10,22,28-tetrafluoro-3,6,9,9-tetramethyl-12,12-dioxo-24-oxa-12lambda6-thia-3,4,19,30-tetrazapentacyclo[23.3.1.12,5.015,23.016,20]-triaconta-1(29),2(30),4,15,17,20,22,25,27-nonaen-6-yl]phenyl]propanoic Acid]	A (a TECC value less than 12 is marked “A”)	A (an ΔTagg value less than or equal to 5 °C is marked “A”)
Cn1nc2nc1-c1cc(ccc1F)Oc1c(F)cc3[nH]ccc3c1CCS(=O)(=O)CC(C)(C)CCCC2(C)c1cccc(/C=C2\CCOC2=O)c1 (centres unmarked) [Compound 172, (3E)-3-[[3-(22,28-Difluoro-3,6,10,10-tetramethyl-12,12-dioxo-24-oxa-12λ6-thia-3,4,19,30-tetrazapentacyclo[23.3.1.12,5.015,23.016,20]triaconta-1(29),2(30),4,15,17,20,22,25,27-nonaen-6-yl)phenyl]methylene]tetrahydrofuran-2-one]	A (a TECC value less than 12 is marked “A”)	B (a value above 5 °C and less than or equal to 10 °C is marked “B”)
CC(CC(=O)O)c1cccc([C@@]2(C)CCCC(C)(C)CS(=O)(=O)CCc3c(c(F)cc4[nH]ccc34)[S+]([O-])c3ccc(F)c(c3)-c3nc2nn3C)c1 (mixture of isomers) [Compound 217B, 3-[3-[(6R)-22,28-difluoro-3,6,10,10-tetramethyl-12,12,24-trioxo-12λ6,24λ4-dithia-3,4,19,30-tetrazapentacyclo[23.3.1.12,5.015,23.016,20]triaconta-1(29),2(30),4,15,17,20,22,25,27-nonaen-6-yl]phenyl]butanoic Acid]	C (a value between 20 and 80 is marked “C”)	C (a value greater than 10 °C and less than or equal to 25 °C is marked “C”)
